Results on one compound are retold here after patent publication EP0569598A1, “BENZOXAZINONE DERIVATIVE” (JAPAN TOBACCO INC., priority 1991, dated 1993).

Assay [1] addresses T1, human sputum elastase (HSE) (Homo sapiens, UniProt P08246).
T1 construct: human sputum elastase (HSE); purchased Sigma Inc
T1 sequence (P08246 30-267): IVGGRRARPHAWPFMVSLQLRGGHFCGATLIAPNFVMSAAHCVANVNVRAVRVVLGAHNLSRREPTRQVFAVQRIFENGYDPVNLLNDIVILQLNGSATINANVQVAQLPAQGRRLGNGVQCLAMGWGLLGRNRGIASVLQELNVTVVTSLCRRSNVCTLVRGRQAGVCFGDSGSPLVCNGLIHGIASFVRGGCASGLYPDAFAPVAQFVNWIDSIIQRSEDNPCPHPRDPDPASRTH
In words: HSE inhibitory activity (synthetic substrate, pNA release). The conditions noted are these: pH 7.0; HSE 10 nM, substrate 0.25 mM; read-out: IC₅₀ value HSE. Type of assay: biochemical. The procedure: (§1) Activities of the Benzoxazine derivatives of the present invention against human leukocyte elastase (HLE), human sputum elastase (HSE), human cathepsin G (HCG), bovine pancreatic α-chmotrypsin (CYT) and bovine pancreatic trypsin (TRY) were measured by the following method.
A test compound was dissolved in DMSO (for fluorometry) and prepared various concentration of the solution. To each concentration was added 2-fold volume of 0.2M Tris-HCl (pH8.6), thereby obtaining a test solution. Synthetic substrate (Funakoshi, L-1335) was dissolved in DMSO and 2-volume of 0.2M Tris-HCl (pH8.6) was added thereto, thereby obtaining a substrate solution. The reaction was performed using a microplate having 96 wells (Nunk). Six-time reactions were repeated for each concentration. One handred and forty µl of an enzyme solution containing 0.2M Tris-HCl (pH8.6), 30 µl of a test solution and 30 µl of a substrate solution per well of the microplate were respectively pre-incubated at 37°C for 10 minutes. After completion of the incubation, the enzyme solution was mixed with the test sample and incubated for 10 minutes and then the substrate solution was added to perform an enzyme reaction. The absorbance of released P-nitroanilide (PNA) was measured at the wave length of 405 nm by means of a microplate reader (MTP-100; CORONA), thereby determining the substrate decomposition. […]

Assay [2] addresses T2, bovine pancreatic α-chmotrypsin (CYT) (Bos taurus, UniProt P00766).
T2 construct: bovine pancreatic α-chmotrypsin (CYT); purchased Sigma Co., Ltd
In words: CYT inhibitory activity (synthetic substrate, pNA release). Type of assay: biochemical. The note with it: pH 8.0; CYT 3.4 nM, substrate 0.273 mM; read-out: IC₅₀ value CYT. The procedure:
as §1
A test compound was dissolved in DMSO (for fluorometry) and prepared various concentration of the solution. To each concentration was added 2-fold volume of 0.2M Tris-HCl (pH8.6), thereby obtaining a test solution. Synthetic substrate (Funakoshi, L-1335) was dissolved in DMSO and 2-volume of 0.2M Tris-HCl (pH8.6) was added thereto, thereby obtaining a substrate solution. The reaction was performed using a microplate having 96 wells (Nunk). Six-time reactions were repeated for each concentration. One handred and forty µl of an enzyme solution containing 0.2M Tris-HCl (pH8.6), 30 µl of a test solution and 30 µl of a substrate solution per well of the microplate were respectively pre-incubated at 37°C for 10 minutes. After completion of the incubation, the enzyme solution was mixed with the test sample and incubated for 10 minutes and then the substrate solution was added to perform an enzyme reaction. The absorbance of released P-nitroanilide (PNA) was measured at the wave length of 405 nm by means of a microplate reader (MTP-100; CORONA), thereby determining the substrate decomposition. The rate of the substrate decomposition was shown as an average value of 6 repeated reactions. The inhibitory concentration of a test compound relative to the amount of the substrate decomposition in the reaction mixture without a test compound was regarded as an IC₅₀ value. The final concentration of HLE and a synthesized substrate in the reaction mixture were 5.63 nM and 0.2625 mM, respectively.
a) Enzyme obtaining route CYT was obtained from Sigma Co., Ltd.
Substantially the same method as used in the measurement of the HLE inhibitory activity was used except that a buffer solution (pH 8.0) was used. The final concentration of CYT and synthetic substrate (Funakoshi, L-1010) in a reaction mixture were 3.4 nM and 0.273 mM, respectively.

For assay [3], the system named is neutrophiles from the human peripheral blood. In words: Human neutrophile chemotaxis suppressing activity (fMLP, chemotaxis chamber). Type of assay: cell-based. The note with it: Concentration 12.5 µM, 10-⁷M fMLP, one hour at 37°C. The method, then: The neutrophile fraction (60% percoal fraction having neutrophile purity of 90% or more) was taken from the human peripheral blood by means of percoal density gradient centrifugation at 2300 rpm for 20 minutes.
An intercell having a pore diameter of 5 µm, containing 8 x 10⁵ of neutrophiles and the compound of the present invention adjusted in various concentrations was placed in each well of a chemotaxis chamber (KURABO), in which has been added 1300 µl of a medium containing 10-⁷M of formylmethionyl-leucyl-phenylalanine (fMLP), which is a neutrophile chemotaxis factor. After incubating for one hour at 37°C in an incubator containing 5% carbon dioxide, the number of cells migrating from the upper side of the intercell membrane into the lower side of the membrane in the chamber was counted by the following method. That is, the lower side surface of the intercell membrane was washed with PBS for 4 times and fixed with methanol and dyed with hematoxylin-eosin solution. The membrane was removed from the intercell and placed on a slide, dried in air, followed by sealing with Canada balsam. The cell number was microscopically counted in 5 visual fields. Taking average number of the five fields, the average was employed as the number of migrating cells. The value subtracting the migrating cell number in a control experiment containing no fMLP from the cell number in an experiment containing no the compound of the present invention was regarded as 100, the chemotaxis suppressing activity was determined as the following formula: Neutrophilic chemotaxis suppressing activity (%) [formula] = 100 - A/B x 100 [formula] = 100 - (C - D)/(E-D) x 100 [formula] Where: • A: chemotaxis measured in the experiment containing the compound of the present invention; • B: chemotaxis measured in the experiment not containing the compound of the present invention • C: the number of migrating cells measured in the experiment containing both the compound of the present invention and fMLP. • D: the number of migrating cells in the experiment containing neither the compound of the present invention nor fMLP. • E: the number of migrating cells in the experiment containing only fMLP.

Molecules are shown by their SMILES.

As for `Cc1cccc2nc([C@@H](NC(=O)OCC(c3ccccc3)c3ccccc3)C(C)C)oc(=O)c12` [Compound 1, 2-[1(S)-[(2,2-diphenylethoxy-carbonyl)amino]-2-methylpropyl]-5-methyl-4H-3,1-benzoxazin-4-one], the IC50 in assay [1] was 280 nM; in assay [2], 1400 nM. This compound also had a Chemotaxis in assay [3] (experiment without compound regarded as 100) of 4.7. The compound further had an activity at 12.5 µM in assay [3] (Homo sapiens, 1 h) of 95.3%.
